The text below walks through data of patent US8252520B2, “Methods and compounds for inhibiting Hec1 activity for the treatment of proliferative diseases” (Taivex Therapeutics Corporation, priority 2002, dated 2012).

What all share (assay type): cell-based
Assay [1] relates to HeLa cells. The assay can be described thus: small-scale killing of dividing HeLa cells. To be noted: dose of 20 (unit not given). The text has this: (§1) To determine whether the identified compounds would have the same effect in mammalian cells, we used HeLa cells to test the effects of these compounds in a small-scale experiment. […] These two compounds were named INH1 and INH2 (INH1, MW: 308.41; also referred to herein as IBT 13131; see FIG. 16; INH2, MW 382.49; also referred to herein as IBT 14664; see FIG. 16).

The test system of assay [2] is HeLa cells. Nature of the assay: colony formation assay in HeLa cells. The settings on record: 12 days treatment, INH1 compared with INH2. Here is the method:
FIG. 12. Effects of INH1 and INH2 on colony formation of HeLa cells. Exponentially grown cells were seeded at 800 cells per 10-cm dish for 24 h and treated with indicated concentrations of INH1 (MW: 308.41; also referred to herein as IBT 13131; see FIG. 17), INH2 (MW 382.49; also referred to herein as IBT 14664; see FIG. 17), or control (DMSO less than 0.1%) for 12 days. The colonies were fixed and stained with methylene blue and counted. The values were averaged from a triplicate set of experiments, and error bars represent the SEM.
as §1

Assay [3] concerns the target T1, interaction between Hec1 and Nek2 (Homo sapiens, UniProt O14777).
T1 construct: endogenous in cells; host or cells: HeLa cells
T1 sequence (O14777 1-642): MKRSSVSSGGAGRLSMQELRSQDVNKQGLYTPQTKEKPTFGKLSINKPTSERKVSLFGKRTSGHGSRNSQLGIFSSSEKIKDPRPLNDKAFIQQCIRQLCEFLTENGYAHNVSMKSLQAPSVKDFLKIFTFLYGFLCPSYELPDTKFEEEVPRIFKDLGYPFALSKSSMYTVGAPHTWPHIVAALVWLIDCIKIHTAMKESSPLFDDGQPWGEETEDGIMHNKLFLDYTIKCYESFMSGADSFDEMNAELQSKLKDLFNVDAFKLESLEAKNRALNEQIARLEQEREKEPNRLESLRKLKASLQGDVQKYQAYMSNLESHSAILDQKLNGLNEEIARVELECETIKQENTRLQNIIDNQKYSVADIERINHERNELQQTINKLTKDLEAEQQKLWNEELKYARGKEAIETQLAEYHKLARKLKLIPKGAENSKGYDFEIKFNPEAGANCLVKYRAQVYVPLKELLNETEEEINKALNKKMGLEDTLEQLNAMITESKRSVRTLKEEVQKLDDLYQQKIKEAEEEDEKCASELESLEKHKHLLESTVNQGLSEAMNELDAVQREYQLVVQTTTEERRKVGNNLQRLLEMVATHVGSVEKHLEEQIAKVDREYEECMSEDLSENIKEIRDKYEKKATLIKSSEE
Nature of the assay: co-immunoprecipitation of Nek2 with Hec1 from treated HeLa cells. To be noted: 10 and 20 μM, 24 hours. Here is the method: FIG. 13A. Dissociation of Hec1 and Nek2 in INH1I-treated cells. HeLa cells were grown in log-phase and treated with 0.08% DMSO or with the indicated concentration of INH1 for 24 hours. Cells were harvested for immunoprecipitation with the anti-Hec1 antibody mAb 9G3. The immunoprecipitates were analyzed by western blot with either mAb 9G3 or anti-Nek2 antibodies. […] Fractions of lysates were taken for straight western blot with anti-Rad50 antibodies as a loading control.
(§2) We performed a co-immunoprecipitation assay using cells treated with INH1 or INH2 to test whether these compounds disrupt the interaction between Hec1 and Nek2. […] Similarly, we examined whether Nek2 phosphorylation of Hec1 is diminished in the cells treated with these drugs by Western blotting with […], which recognizes specifically the phosphorylated S165 of Hec1.

Assay [4] has as its system Nek2 phosphorylation of Hec1 at S165. Nature of the assay: Western blot of Hec1 S165 phosphorylation (anti-A439) in treated HeLa cells. The settings on record: 20 μM, 36 hours. Here is the method: HeLa cells (lane 1) were treated with 0.08% DMSO (lane 2), 20 μM of INH1 (lane 3), INH2 (lane 4) or nocodazole (lane 5) for 36 hours before cells were harvested for immunoblotting with anti-Hec1, mAb9G3, for total Hec1 protein or anti-A439 for the phosphorylated Hec1 at S165 (pHEC1). Nek2 phosphorylation of Hec1 is undetectable in INH1 and INH2 treated cells (lanes 3 and 4).
as §2
(A western blot detects proteins with antibodies after separation by electrophoresis.)

Assay [5] concerns HeLa cells. Nature of the assay: microscopy of H2B-GFP labeled HeLa cells (chromosome segregation). To be noted: 10 mM of INH1 (FIG. 14A). Here is the method: FIG. 14A. Micrographic pictures of H2B-GFP labeled HeLa cells treated with DMSO (Mock) or 10 mM of INH1. White arrows indicate lagging chromosomes during M phase.
Assay [6] has as its system HeLa cells. The assay can be described thus: flow cytometric (FACS) analysis of treated HeLa cells. The settings on record: 5 or 10 μM, 72 hrs. Here is the method: FIG. 14B. Flow cytometric analysis of INH1 treated HeLa cells. Exponentially grown HeLa cells were seeded at 5×10^5 cells per 10-cm dish for 24 hrs and then treated with DMSO (control) or 5 or 10 μM of INH1 for 72 hrs. Cells were harvested and fixed in 70% ethanol for flow cytometry after staining with propidium iodide. Data represent one of three independent experiments.
For orientation: In flow cytometry, cells or beads pass a laser one at a time.

Assay [7] has as its system RB-reconstituted Saos2 cells (SR5). Nature of the assay: cell killing, trypan blue exclusion, RB-reconstituted Saos2 cells. The settings on record: 10 μM, 60 hours. Here is the method: (§3) FIG. 15. Differential effect of INH1 in Rb positive and negative osteosarcoma Saos2 cells. Cells grown in log-phase were either untreated or treated with 0.08% DMSO or INH1 at the indicated concentrations for 60 hours. Surviving cells were counted by trypan blue exclusion and expressed as a percentage of the control. SR5 is a Rb reconstituted Saos-2 cell line. The values were the average of a triplicate set of experiments, with error bars representing the SEM.

In assay [8] the test system is parental (RB-negative) Saos2 cells. Nature of the assay: cell killing, trypan blue exclusion, parental Saos2 cells. To be noted: 10 μM, 60 hours. Here is the method: as §3

“Also recorded” adds a separate entry of the source.

Consider `Cc1ccc(-c2csc(NC(=O)c3ccccc3)n2)c(C)c1` [INH1], for which the “activity in killing dividing cells” value in the assay with HeLa cells [1] is “significant activity”. In the assay on HeLa cells [2], the “killing activity by colony formation” value is listed as “significant higher killing activity”. Besides, the “Nek2 co-precipitated with anti-Hec1 antibodies” value in assay [3] is “very little or no Nek2 protein”; in assay [3] (listed as INH 1) it was “Nek2 failed to be co-immunoprecipitated with Hec1”. The “Nek2 phosphorylation of Hec1 (S165)” value in assay [4] was “abolished; also recorded: undetectable”. Further, in the assay on HeLa cells [5], the chromosome segregation phenotype entry is listed as “generated chromosome missegregations”. Moreover, the “cell death by FACS analysis” value with HeLa cells [6] is listed as “led to cell death”. In addition, the cells killed in assay [7] is under 5%; in assay [8], “more than 50%”.

For the compound INH2, in the assay on HeLa cells [1], the “activity in killing dividing cells” value is “significant activity”. Moreover, the “Nek2 phosphorylation of Hec1 (S165)” value in assay [4] is reported as “abolished; also recorded: undetectable”.
